# Measured values: ChEMBL document CHEMBL1137153, “Synthesis of 7 alpha- and 7 beta-spermidinylcholesterol, squalamine analogues” (2004)
# Key:
# Assay type in all cases: functional
# [1] = system: Escherichia coli; assay: Minimal inhibitory concentration against Escherichia coli (strain 54127) after 48 hr of incubation was evaluated
# [2] = system: Enterococcus hirae; assay: Minimal inhibitory concentration against Enterococcus hirae (strain CIP 5855) after 48 hr of incubation was evaluated; settings: CIP 5855, 48 h
# [3] = system: Candida albicans; assay: Minimal inhibitory concentration against Candida albicans (strain CIP 1180-79) after 48 hr of incubation was evaluated; settings: CIP 1180-79, 48 h
# [4] = system: Saccharomyces cerevisiae; assay: Minimal inhibitory concentration against Saccharomyces cerevisiae (strain ATC 28383) after 48 hr of incubation was evaluated
# [5] = system: Staphylococcus aureus; assay: Minimal inhibitory concentration against Staphylococcus aureus (strain CIP 54127) after 48 hr of incubation was evaluated; settings: CIP 54127, 48 h
# [6] = system: Candida albicans; assay: Minimal inhibitory concentration against Candida albicans (strain CIP 1180-79) after 48 hr of incubation was evaluated; Range = 4 - 8 ug/mL; settings: CIP 1180-79, 48 h
MIC [1] [µg/mL],MIC [2] [µg/mL],MIC [3] [µg/mL],MIC [4] [µg/mL],MIC [5] [µg/mL],MIC [6] [µg/mL],SMILES
3.12,6.25,3.12,3.12,6.25,,CC(C)CCC[C@@H](C)[C@H]1CCC2C3C(CC[C@@]21C)[C@@]1(C)CC[C@H](O)CC1=C[C@@H]3NCCCNCCCCN (stereo partly drawn)
> 100,,,,1.56,8,CC(C)[C@@H](CC[C@@H](C)[C@H]1CC[C@H]2[C@@H]3[C@H](O)C[C@H]4C[C@@H](NCCCNCCCCN)CC[C@]4(C)[C@H]3CC[C@]12C)OS(=O)(=O)O [SQUALAMINE]
6.25,3.12,6.25,3.12,3.12,,CC(C)CCC[C@@H](C)[C@H]1CCC2C3C(CC[C@@]21C)[C@@]1(C)CC[C@H](O)CC1=C[C@H]3NCCCNCCCCN (stereo partly drawn)
